Results: the SangsterLogP compilation

Test: method code SF-AS, from DOI: 10.1248/cpb.22.2064
Conditions: pH 7.4

SMILES | logD
Cc1c(N2CCCC2)c(=O)n(C)c(=O)n1C1CCCCC1 | 3.55
Cc1c(N2CCCCC2)c(=O)n(C)c(=O)n1-c1ccccc1 | 3.21
Cc1c(N2CCCCC2)c(=O)n(-c2ccccc2)c(=O)n1-c1ccccc1 | 3.24
Cc1c(N2CCCCC2)c(=O)n(C)c(=O)n1C1CCCCC1 | 3.68
Cc1c(N2CCOCC2)c(=O)n(-c2ccccc2)c(=O)n1C1CCCCC1 | 2.37
Cc1c(N(C)C)c(=O)n(Cc2ccccc2)c(=O)n1C | 2.47
Cc1c(N2CCOCC2)c(=O)n(-c2ccccc2)c(=O)n1-c1ccccc1 | 1.44
Cc1c(N(C)C)c(=O)[nH]c(=O)n1C1CCCCC1 | 2.53
Cc1c(NCC(C)C)c(=O)n(-c2ccccc2)c(=O)n1C1CCCCC1 | 3.27
Cc1c(NCC(C)C)c(=O)n(-c2ccccc2)c(=O)n1-c1ccccc1 | 2.4
Cc1c(N(C)C)c(=O)n(C2CCCC2)c(=O)n1C | 2.65
Cc1c(N(C)C)c(=O)n(C2CCCCC2)c(=O)n1C | 3.02
Cc1c(N2CCCC2)c(=O)n(C)c(=O)n1-c1ccccc1 | 2.68
Cc1c(N(C)C)c(=O)n(C)c(=O)n1C1CCCCC1 | 2.94
